Calls of active or inactive are those of the source.
Legend:
Aspartyl aminopeptidase = target: T1, Aspartyl aminopeptidase (Plasmodium falciparum 3D7, UniProt Q8I2J3); experiment: Counterscreen for inhibitors of M1 and M17 aminopeptidases: QFRET-based biochemical high throughput dose response assay for inhibitors of the Plasmodium falciparum M18 Aspartyl Aminopeptidase (PFM18AAP). [Related PubChem assays: 1619 (Screening assay (M17LAP inhibitors).), 1445 (Screening assay (M1AAP inhibitors).)]
T1 sequence (Q8I2J3 whole entry): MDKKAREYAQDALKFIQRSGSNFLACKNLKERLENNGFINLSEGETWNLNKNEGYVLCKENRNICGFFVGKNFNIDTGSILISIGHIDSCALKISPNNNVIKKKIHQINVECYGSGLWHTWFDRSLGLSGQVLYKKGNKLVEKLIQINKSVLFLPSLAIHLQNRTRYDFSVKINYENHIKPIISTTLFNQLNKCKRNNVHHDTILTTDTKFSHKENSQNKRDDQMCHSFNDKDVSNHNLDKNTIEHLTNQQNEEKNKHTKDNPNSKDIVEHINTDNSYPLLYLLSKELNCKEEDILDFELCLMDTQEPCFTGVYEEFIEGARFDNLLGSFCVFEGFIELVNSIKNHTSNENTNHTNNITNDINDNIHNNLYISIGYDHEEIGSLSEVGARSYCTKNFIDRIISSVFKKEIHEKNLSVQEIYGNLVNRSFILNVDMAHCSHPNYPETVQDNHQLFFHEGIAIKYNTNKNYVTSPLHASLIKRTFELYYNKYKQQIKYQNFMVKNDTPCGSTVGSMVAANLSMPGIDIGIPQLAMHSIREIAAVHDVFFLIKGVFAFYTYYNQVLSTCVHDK

Procathepsin L = Procathepsin L (Homo sapiens, UniProt P07711); experiment: CTSL1 protease inhibition – biochemical, QFRET, 1536-well, counter-screen for M1/M17 aminopeptidase inhibitor project, dose response (AID 2214)
[1] = target: Multidrug resistance protein CDR2 (Candida albicans (strain SC5314 / ATCC MYA-2876) (Yeast), UniProt P78595); experiment: inhibition of Nile Red efflux via Candida CDR2 – S. cerevisiae AD1-8u, singleplex, Cherry Pick1 hits, dose response (AID 588604); type: functional
Leucine aminopeptidase = target: T2, Leucine aminopeptidase (Plasmodium falciparum 3D7, UniProt Q8IL11); experiment: P. falciparum M17LAP inhibitors, primary screen, biochemical, fluorogenic H-Leu-NHMec substrate, 1536-well (AID 1619); type: functional
T2 sequence (Q8IL11 whole entry): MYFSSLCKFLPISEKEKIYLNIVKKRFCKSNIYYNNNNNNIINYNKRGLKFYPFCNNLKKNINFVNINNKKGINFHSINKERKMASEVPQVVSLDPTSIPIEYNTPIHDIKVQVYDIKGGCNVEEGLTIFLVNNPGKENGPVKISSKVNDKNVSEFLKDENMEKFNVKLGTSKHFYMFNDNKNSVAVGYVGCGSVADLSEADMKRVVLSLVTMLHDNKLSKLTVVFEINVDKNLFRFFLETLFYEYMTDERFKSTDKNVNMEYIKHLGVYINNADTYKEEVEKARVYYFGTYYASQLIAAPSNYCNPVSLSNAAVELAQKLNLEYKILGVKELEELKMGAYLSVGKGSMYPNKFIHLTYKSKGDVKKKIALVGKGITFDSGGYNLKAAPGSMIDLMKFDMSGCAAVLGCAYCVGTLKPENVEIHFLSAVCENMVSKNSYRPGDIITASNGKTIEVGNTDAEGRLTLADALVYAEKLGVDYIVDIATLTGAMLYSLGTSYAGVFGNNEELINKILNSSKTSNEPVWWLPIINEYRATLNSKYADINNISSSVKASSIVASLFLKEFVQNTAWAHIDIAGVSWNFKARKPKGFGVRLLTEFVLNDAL

[2] = target: Tyrosine-protein kinase SYK (Homo sapiens, UniProt P43405); type: functional
[3] = target: Glycogen synthase kinase-3 beta (Homo sapiens, UniProt P49841); type: functional;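 also: value comes from a broad kinome profiling panel, with GSK3B as the panel member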
[4] = target: Calcium/calmodulin-dependent protein kinase type II subunit beta (Homo sapiens, UniProt Q13554); type: functional
Misshapen-like kinase 1 = Misshapen-like kinase 1 (Homo sapiens, UniProt Q8N4C8); type: functional;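 also: kinome panel screen with MINK as the panel member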
[5] = target: Homeodomain-interacting protein kinase 2 (Homo sapiens, UniProt Q9H2X6); type: functional;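 also: measured within a kinome-wide kinase profiling panel, HIPK2 being one panel member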
[6] = target: Serine/threonine-protein kinase PLK3 (Homo sapiens, UniProt Q9H4B4); type: functional
[7] = target: MAP/microtubule affinity-regulating kinase 3 (Homo sapiens, UniProt P27448); type: functional;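 also: MARK3 affinity measured as one member of a kinome panel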
[8] = target: Serine/threonine-protein kinase PLK1 (Homo sapiens, UniProt P53350); type: functional;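 also: PLK1 measured as one member of a kinome-wide profiling panel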
[9] = target: Serine/threonine-protein kinase pim-1 (Homo sapiens, UniProt P11309); type: functional
[10] = target: Tyrosine-protein kinase BTK (Homo sapiens, UniProt Q06187); type: functional
Focal adhesion kinase 1 = Focal adhesion kinase 1 (Homo sapiens, UniProt Q05397); type: functional;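 also: measured as one member of a kinome panel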
[11] = target: Cyclin-dependent kinase 8 (Homo sapiens, UniProt P49336); experiment: Navigating the Kinome. Panel member name: CDK8; type: functional
[12] = target: ALK tyrosine kinase receptor (Homo sapiens, UniProt Q9UM73); type: functional;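 also: ALK tested as one member of a kinase panel screen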
[13] = target: Tyrosine-protein kinase Fyn (Homo sapiens, UniProt P06241); type: functional
[14] = target: Serine/threonine-protein kinase TAO1 (Homo sapiens, UniProt Q7L7X3); type: functional
LIM domain kinase 1 = LIM domain kinase 1 (Homo sapiens, UniProt P53667); experiment: Navigating the Kinome. Panel member name: LIMK1; type: functional
[15] = target: Tyrosine-protein kinase Lck (Homo sapiens, UniProt P06239); type: functional;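 also: lck was assayed as one member of a kinase panel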
[16] = target: Tyrosine-protein kinase Lyn (Homo sapiens, UniProt P07948); type: functional;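 also: lyn as one member of a kinase panel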
[17] = target: cAMP-dependent protein kinase catalytic subunit PRKX (Homo sapiens, UniProt P51817); type: functional
[18] = target: Testis-specific serine/threonine-protein kinase 2 (Homo sapiens, UniProt Q96PF2); type: functional;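 also: part of the Navigating the Kinome panel, target entry STK22B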
[19] = target: Mitogen-activated protein kinase 9 (Homo sapiens, UniProt P45984); type: functional;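 also: value from a kinome panel profiling assay, MAPK9 panel entry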
[20] = target: Mitogen-activated protein kinase 14 (Homo sapiens, UniProt Q16539); type: functional;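 also: part of a kinome-wide panel, MAPK14 entry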
[21] = target: Cyclin-dependent kinase 2 (Homo sapiens, UniProt P24941); type: functional;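 also: CDK2 measured as one member of a broad kinome profiling panel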
[22] = target: Cell division cycle 7-related protein kinase (Homo sapiens, UniProt O00311); type: functional;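 also: value obtained from a kinome-wide kinase panel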
[23] = target: Cyclin-dependent kinase 1 (Homo sapiens, UniProt P06493); type: functional;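 also: Kinome-wide panel profiling, with the target listed as panel member CDC2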
[24] = target: Serine/threonine-protein kinase pim-2 (Homo sapiens, UniProt Q9P1W9); type: functional;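 also: value comes from a broad kinase panel profiling study in which PIM2 was one of the panel members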
[25] = target: Vascular endothelial growth factor receptor 3 (Homo sapiens, UniProt P35916); type: functional;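 also: value from a kinome-wide profiling panel, with FLT4 as the panel member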
[26] = target: MAP kinase-activated protein kinase 3 (Homo sapiens, UniProt Q16644); type: functional;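 also: value comes from a kinome-wide profiling panel in which MAPKAPK3 is one of the panel members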
[27] = target: Casein kinase I isoform delta (Homo sapiens, UniProt P48730); type: functional;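 also: measured as one member (CSNK1D) of a kinome panel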
[28] = target: Calcium/calmodulin-dependent protein kinase type II subunit delta (Homo sapiens, UniProt Q13557); type: functional
[29] = target: Casein kinase II subunit alpha (Homo sapiens, UniProt P68400); type: functional
[30] = target: Lymphokine-activated killer T-cell-originated protein kinase (Homo sapiens, UniProt Q96KB5); type: functional;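 also: value comes from a kinase panel screen in which TOPK was one of the panel members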
[31] = target: Dual specificity tyrosine-phosphorylation-regulated kinase 3 (Homo sapiens, UniProt O43781); type: functional;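 also: measured as one member of a broad kinase panel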
[32] = target: cGMP-dependent protein kinase 1 (Homo sapiens, UniProt Q13976); type: functional;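 also: value from a kinome panel screen with PRKG1 as the panel member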
[33] = target: Glycogen synthase kinase-3 alpha (Homo sapiens, UniProt P49840); type: functional;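 also: GSK3A result taken from a broad kinome-wide kinase panel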
[34] = target: Cyclin-dependent kinase 5 (Homo sapiens, UniProt Q00535); type: functional;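 also: CDK5 measured as one member of a kinase profiling panel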
[35] = target: Serine/threonine-protein kinase MRCK alpha (Homo sapiens, UniProt Q5VT25); type: functional
[36] = target: RAC-alpha serine/threonine-protein kinase (Homo sapiens, UniProt P31749); type: functional;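 also: AKT1 affinity measured as one member of a kinome-wide kinase profiling panel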
[37] = target: Mitogen-activated protein kinase 13 (Homo sapiens, UniProt O15264); type: functional
[38] = target: Macrophage-stimulating protein receptor (Homo sapiens, UniProt Q04912); experiment: Navigating the Kinome. Panel member name: MST1R; type: functional
Wee1-like protein kinase = Wee1-like protein kinase (Homo sapiens, UniProt P30291); experiment: Navigating the Kinome. Panel member name: WEE1; type: functional
[39] = target: Protein kinase C iota type (Homo sapiens, UniProt P41743); type: functional;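 also: measured within a kinome-wide kinase panel, PRKCI as panel member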
[40] = target: Tyrosine-protein kinase Blk (Homo sapiens, UniProt P51451); type: functional;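 also: obtained as one member of a kinome-wide kinase assay panel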
[41] = target: Casein kinase I isoform gamma-1 (Homo sapiens, UniProt Q9HCP0); type: functional;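 also: measured as the CSNK1G1 member of a kinome profiling panel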
[42] = target: Mitogen-activated protein kinase kinase kinase kinase 5 (Homo sapiens, UniProt Q9Y4K4); type: functional;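 also: measured as one member of a kinome-spanning kinase panel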
[43] = target: RAC-gamma serine/threonine-protein kinase (Homo sapiens, UniProt Q9Y243); type: functional
[44] = target: Receptor tyrosine-protein kinase erbB-4 (Homo sapiens, UniProt Q15303); type: functional;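 also: ERBB4 member of a kinome-wide kinase profiling panel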
[45] = target: Protein kinase C gamma type (Homo sapiens, UniProt P05129); type: functional
[46] = target: Cyclin-dependent kinase 9 (Homo sapiens, UniProt P50750); type: functional;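 also: value from the CDK9 entry of a kinome-spanning kinase panel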
[47] = target: 5'-AMP-activated protein kinase catalytic subunit alpha-1 (Homo sapiens, UniProt Q13131); type: functional
[48] = target: Serine/threonine-protein kinase D3 (Homo sapiens, UniProt O94806); type: functional;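 also: determined within a kinase panel screen, with PRKCN as the panel member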
[49] = target: Cyclin-dependent kinase 7 (Homo sapiens, UniProt P50613); type: functional;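 also: value comes from a kinome-wide kinase profiling panel in which CDK7 is one member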
[50] = target: Dual specificity tyrosine-phosphorylation-regulated kinase 4 (Homo sapiens, UniProt Q9NR20); type: functional
[51] = target: Mitogen-activated protein kinase kinase kinase 20 (Homo sapiens, UniProt Q9NYL2); type: functional

Chain of Serine/threonine-protein kinase pim-1 (P11309 whole entry): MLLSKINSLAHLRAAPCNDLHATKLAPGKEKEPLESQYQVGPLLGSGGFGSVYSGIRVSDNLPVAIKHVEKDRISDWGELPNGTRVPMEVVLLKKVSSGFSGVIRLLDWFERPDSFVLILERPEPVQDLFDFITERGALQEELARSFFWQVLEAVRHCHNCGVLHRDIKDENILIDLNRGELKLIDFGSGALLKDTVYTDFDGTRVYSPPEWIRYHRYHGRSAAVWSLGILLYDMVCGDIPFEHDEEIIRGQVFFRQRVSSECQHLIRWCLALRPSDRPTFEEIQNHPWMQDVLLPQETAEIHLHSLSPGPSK
Chain of Misshapen-like kinase 1 (Q8N4C8 whole entry): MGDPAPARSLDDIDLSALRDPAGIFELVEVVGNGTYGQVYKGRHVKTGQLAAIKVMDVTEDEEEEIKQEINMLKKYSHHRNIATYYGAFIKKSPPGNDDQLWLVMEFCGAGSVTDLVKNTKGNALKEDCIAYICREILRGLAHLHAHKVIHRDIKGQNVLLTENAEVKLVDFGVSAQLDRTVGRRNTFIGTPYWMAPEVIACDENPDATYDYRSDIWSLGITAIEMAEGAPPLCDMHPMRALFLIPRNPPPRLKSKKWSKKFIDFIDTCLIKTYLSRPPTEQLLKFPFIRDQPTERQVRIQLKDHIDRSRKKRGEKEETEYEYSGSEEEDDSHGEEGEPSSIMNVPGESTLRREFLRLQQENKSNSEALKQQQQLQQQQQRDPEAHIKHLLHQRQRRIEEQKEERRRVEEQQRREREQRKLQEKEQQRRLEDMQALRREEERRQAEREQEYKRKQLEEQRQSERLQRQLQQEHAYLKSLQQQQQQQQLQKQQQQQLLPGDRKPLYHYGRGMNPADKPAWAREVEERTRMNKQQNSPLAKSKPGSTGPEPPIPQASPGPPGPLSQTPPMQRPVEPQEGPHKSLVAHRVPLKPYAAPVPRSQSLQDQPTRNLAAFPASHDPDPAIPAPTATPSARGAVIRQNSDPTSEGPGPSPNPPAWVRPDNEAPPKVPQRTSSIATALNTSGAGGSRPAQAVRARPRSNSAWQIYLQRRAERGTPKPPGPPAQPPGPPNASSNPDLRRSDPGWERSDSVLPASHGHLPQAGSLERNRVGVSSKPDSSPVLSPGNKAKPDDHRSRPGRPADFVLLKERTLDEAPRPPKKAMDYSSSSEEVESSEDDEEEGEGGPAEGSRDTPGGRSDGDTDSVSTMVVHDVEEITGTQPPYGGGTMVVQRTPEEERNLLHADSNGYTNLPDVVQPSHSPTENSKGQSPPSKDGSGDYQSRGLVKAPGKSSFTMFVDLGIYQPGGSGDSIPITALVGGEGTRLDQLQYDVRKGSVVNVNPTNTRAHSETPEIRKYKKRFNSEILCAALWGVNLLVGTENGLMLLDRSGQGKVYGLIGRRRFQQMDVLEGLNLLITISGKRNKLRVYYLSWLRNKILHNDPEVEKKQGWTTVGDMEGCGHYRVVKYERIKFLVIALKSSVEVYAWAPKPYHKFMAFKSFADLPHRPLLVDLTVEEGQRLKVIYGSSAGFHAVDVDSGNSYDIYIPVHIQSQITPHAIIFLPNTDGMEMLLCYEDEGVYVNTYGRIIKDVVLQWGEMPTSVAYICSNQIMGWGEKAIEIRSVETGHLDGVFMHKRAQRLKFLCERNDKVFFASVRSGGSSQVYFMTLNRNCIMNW
Chain of Cyclin-dependent kinase 8 (P49336 whole entry): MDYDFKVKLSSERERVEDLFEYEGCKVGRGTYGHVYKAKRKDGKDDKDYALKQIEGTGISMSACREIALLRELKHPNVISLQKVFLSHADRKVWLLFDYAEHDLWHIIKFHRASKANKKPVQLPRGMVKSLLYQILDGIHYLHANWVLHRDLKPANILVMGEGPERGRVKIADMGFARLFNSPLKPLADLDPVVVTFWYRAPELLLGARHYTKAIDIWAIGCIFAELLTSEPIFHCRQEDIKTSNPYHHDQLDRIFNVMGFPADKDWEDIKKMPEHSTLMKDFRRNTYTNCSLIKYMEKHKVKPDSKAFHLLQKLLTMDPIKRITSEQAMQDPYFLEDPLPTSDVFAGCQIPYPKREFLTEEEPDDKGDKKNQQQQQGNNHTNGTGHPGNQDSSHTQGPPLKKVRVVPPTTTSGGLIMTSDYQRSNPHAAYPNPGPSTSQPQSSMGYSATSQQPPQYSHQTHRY
Chain of Procathepsin L (P07711 whole entry): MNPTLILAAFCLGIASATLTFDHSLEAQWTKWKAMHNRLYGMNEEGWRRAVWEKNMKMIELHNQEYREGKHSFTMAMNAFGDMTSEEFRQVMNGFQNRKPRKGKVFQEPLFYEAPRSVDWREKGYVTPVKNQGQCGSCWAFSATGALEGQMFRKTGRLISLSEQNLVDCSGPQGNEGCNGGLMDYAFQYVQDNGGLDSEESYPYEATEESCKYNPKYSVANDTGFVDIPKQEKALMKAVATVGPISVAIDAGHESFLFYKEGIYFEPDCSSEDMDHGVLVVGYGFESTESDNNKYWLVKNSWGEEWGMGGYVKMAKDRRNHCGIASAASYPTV
Chain of Mitogen-activated protein kinase 9 (P45984 whole entry): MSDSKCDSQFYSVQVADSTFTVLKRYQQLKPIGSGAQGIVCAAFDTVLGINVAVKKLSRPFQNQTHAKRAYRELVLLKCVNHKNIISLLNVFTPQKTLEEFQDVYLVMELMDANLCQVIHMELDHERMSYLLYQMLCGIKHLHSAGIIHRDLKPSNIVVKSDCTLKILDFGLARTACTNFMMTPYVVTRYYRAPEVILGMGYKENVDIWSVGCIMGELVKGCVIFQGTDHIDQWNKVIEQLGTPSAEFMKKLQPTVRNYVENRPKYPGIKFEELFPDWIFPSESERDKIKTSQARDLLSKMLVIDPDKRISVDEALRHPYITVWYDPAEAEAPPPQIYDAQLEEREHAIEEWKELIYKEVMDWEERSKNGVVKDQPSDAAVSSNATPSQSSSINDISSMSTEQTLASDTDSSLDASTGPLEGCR
Chain of Serine/threonine-protein kinase MRCK alpha (Q5VT25 whole entry): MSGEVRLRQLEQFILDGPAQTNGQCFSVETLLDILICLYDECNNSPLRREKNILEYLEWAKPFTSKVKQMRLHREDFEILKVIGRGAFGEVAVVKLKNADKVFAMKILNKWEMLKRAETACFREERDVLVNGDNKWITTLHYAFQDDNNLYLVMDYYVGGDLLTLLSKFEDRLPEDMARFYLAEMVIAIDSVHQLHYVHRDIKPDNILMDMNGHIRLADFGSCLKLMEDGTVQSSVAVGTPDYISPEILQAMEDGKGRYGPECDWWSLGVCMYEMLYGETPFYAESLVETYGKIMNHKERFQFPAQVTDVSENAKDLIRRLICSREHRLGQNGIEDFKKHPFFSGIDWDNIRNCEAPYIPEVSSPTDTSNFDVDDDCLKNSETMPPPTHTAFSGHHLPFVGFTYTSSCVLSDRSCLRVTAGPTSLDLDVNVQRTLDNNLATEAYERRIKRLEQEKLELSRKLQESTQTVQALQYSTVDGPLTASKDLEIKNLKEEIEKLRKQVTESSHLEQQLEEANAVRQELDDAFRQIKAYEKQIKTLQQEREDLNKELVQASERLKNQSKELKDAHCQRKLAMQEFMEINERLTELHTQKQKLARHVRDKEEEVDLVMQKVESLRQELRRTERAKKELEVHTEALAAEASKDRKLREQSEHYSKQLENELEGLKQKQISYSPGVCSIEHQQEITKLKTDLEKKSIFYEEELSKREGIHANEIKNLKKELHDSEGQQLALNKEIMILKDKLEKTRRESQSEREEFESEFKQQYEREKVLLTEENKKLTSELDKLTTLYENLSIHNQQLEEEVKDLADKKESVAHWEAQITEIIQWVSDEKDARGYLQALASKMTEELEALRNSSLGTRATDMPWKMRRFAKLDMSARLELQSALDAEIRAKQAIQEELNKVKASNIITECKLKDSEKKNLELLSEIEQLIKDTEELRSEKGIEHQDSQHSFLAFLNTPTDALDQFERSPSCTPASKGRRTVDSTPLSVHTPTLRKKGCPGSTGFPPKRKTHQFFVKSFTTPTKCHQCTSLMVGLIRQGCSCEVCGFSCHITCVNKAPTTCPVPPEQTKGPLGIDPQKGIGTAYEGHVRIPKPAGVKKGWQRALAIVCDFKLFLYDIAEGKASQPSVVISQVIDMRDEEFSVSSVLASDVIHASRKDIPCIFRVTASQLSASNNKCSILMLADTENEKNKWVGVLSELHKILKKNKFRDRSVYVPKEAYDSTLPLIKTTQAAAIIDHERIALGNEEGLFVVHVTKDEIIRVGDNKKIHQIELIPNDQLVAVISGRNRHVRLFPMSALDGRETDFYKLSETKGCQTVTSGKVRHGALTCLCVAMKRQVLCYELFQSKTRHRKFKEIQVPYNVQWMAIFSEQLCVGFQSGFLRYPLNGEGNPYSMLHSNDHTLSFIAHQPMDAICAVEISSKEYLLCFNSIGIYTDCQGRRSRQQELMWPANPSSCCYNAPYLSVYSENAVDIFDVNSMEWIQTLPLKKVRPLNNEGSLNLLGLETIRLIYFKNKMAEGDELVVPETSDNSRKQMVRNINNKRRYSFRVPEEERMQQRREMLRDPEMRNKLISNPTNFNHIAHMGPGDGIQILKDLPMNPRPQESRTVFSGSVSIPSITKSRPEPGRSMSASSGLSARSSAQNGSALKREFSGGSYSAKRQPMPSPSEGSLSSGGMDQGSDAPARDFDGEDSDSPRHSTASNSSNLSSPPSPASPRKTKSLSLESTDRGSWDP
Chain of RAC-gamma serine/threonine-protein kinase (Q9Y243 whole entry): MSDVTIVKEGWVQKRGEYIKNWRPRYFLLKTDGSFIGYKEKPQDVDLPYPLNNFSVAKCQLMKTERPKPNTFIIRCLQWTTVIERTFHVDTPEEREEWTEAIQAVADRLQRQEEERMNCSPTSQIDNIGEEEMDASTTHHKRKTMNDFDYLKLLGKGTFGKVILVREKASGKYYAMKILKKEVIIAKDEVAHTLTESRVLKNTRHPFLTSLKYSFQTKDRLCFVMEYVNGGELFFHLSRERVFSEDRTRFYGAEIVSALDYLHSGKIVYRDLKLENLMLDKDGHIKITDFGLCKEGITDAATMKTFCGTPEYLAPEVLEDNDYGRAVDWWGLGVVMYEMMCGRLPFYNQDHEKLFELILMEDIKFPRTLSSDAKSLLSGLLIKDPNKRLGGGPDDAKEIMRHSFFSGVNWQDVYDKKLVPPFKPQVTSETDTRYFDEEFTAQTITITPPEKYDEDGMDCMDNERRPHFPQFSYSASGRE

Cc1cc(C(=O)COC(=O)c2ccc[nH]c2=O)c(C)n1-c1ccc(F)cc1
> 73.5 µM (not active): IC50 (Aspartyl aminopeptidase)
> 59.6 µM (not active): IC50 (Procathepsin L)
active: EC50 [1] 6.22 µM | IC50 (Leucine aminopeptidase) 1.98 µM

Cc1ccc(Nc2c(C(=O)O)n(CCCOc3cccc4ccccc34)c3cccc(-c4ccccc4C)c23)cc1
active: Ki [2] 1.26 µM | Ki [3] 3.98 µM | Ki [4] 6.31 µM | Ki (Misshapen-like kinase 1) 6.31 µM | Ki [5] 3.16 µM | Ki [6] 3.16 µM | Ki [7] 3.98 µM | Ki [8] 2.51 µM

CC(C)(C)c1cc(NC(=O)C(=O)c2cccc3ccccc23)n(-c2ccc(OCC(=O)NCCO)cc2)n1
active: Ki [11] 1.58 µM | Ki (LIM domain kinase 1) 0.501 µM
inactive: Ki [9] > 6.31 µM | Ki [10] > 6.31 µM | Ki (Focal adhesion kinase 1) > 6.31 µM | Ki [12] > 6.31 µM | Ki [13] > 6.31 µM | Ki [14] > 6.31 µM | Ki [15] > 6.31 µM

COc1cc(N2CCC(N3CCN(C)CC3)CC2)ccc1Nc1ncc(Cl)c(Nc2ccccc2S(=O)(=O)C(C)C)n1 [TAE-684]
inactive: Ki [17] > 1 µM | Ki [9] > 7.94 µM | Ki [20] > 3.98 µM | Ki [22] > 1 µM | Ki [24] > 1.58 µM | Ki [26] > 10 µM | Ki [27] > 7.94 µM | Ki [29] > 2.51 µM | Ki [30] > 10 µM | Ki [11] > 3.98 µM | Ki [31] > 6.31 µM | Ki [33] > 3.16 µM | Ki [36] > 7.94 µM | Ki [37] > 7.94 µM | Ki (Wee1-like protein kinase) > 0.251 µM | Ki [39] > 5.01 µM | Ki [41] > 6.31 µM | Ki [43] > 10 µM | Ki [45] > 1 µM | Ki [46] > 1.58 µM | Ki [50] > 7.94 µM | Ki [51] > 7.94 µM
active: Ki [16] 0.0794 µM | Ki [18] 0.01 µM | Ki [19] 0.398 µM | Ki [23] 0.316 µM | Ki [25] 0.00794 µM | Ki (Misshapen-like kinase 1) 1 µM | Ki [28] 0.00398 µM | Ki [32] 1.58 µM | Ki [34] 0.0794 µM | Ki [35] 3.98 µM | Ki [38] 0.126 µM | Ki [40] 0.0631 µM | Ki [42] 0.0794 µM | Ki [44] 0.02 µM | Ki [47] 0.01 µM | Ki [48] 0.0316 µM | Ki [49] 0.0794 µM
6.9: pKi [21]

Source: ChEMBL document CHEMBL1201862, “PubChem BioAssay data set” (2004)
